≈ marks a conversion by molar mass, not a printed value. Like-named read-outs stand apart in the source and are kept apart here. Residues, ends and D or L forms follow the SMILES beside them.
What was measured:
[1] = system: VRE, VISA, VRSA, and E. coli strains; assay: microbe, parasite or virus in culture; type: cell-based; settings: for MICs against these bacterial strains: 16 h; for MIC: Staphylococcus aureus
Experimental: (§1) The antibacterial activities of peptides were determined by the standard broth microdilution method according to the guidelines of the Clinical and Laboratory Standards Institute (CLSI). Briefly, E. coli ATCC 25922 were incubated in MHB, and E. faecium BCRC 15B0132, VISA and VRSA strains were incubated in TSB overnight at 37 °C. The cell cultures were regrown to the mid-log phase and subsequently diluted to a final concentration of 5 × 10^5 CFU/mL. The 1 µL peptides or antibiotic were loaded into each well at the final concentration of 64, 32, 16, 8, 4, 2, 1, and 0.5 µg/mL, then loaded 99 µL diluted microbes into each well of polypropylene 96-well plate. After 16 h of incubation at 37 °C, the turbidity at OD600 was measured by the microplate reader. The minimal inhibitory concentration (MIC) value was defined as the lowest concentration of peptide or antibiotic, which inhibited the 90% visible growth of bacteria. All experiments were repeated three times independently.

E. faecium BCRC 15B0132 = assay: Uptake of BODIPY-labeled vancomycin, confocal laser scanning microscopy; type: cell-based, Enterococcus faecium; settings: VRE 10^7 CFU/mL, 0.5 ×MIC peptide 30 min at 37 °C, then BODIPY-labeled vancomycin (2 μg/mL) 30 min; mean fluorescence intensity
Experimental: (§2) The fluorescence experiments were performed with slight modification as described previously. Briefly, the bacteria (10^7 CFU/mL) were incubated with 0.5 ×MIC antimicrobial peptides for 30 min and then treated with BODIPY-labeled vancomycin (2 μg/mL) for 30 min. Samples treated with BODIPY-labeled vancomycin only served as a control. After incubation, bacteria were centrifuged at 8000× g for 5 min, washed three times with PBS to remove unbinding fluorescence dye, and resuspended by PBS. The resuspended solution were loaded on the glass slides (Polysine™, Thermo Fisher Scientific, Waltham, MA, USA) and visualized under confocal laser scanning microscope (LSM 510 META, Carl Zeiss, Jena, Thüringen, Germany) equipped with a 64× oil objective lens (Carl Zeiss, Jena, Thüringen, Germany).

E. coli ATCC 25922 [2] = assay: microbe, parasite or virus in culture; type: cell-based, Escherichia coli
Experimental: as §1

[3] = system: VRE, VISA, VRSA and E. coli strains; assay: Checkerboard assay, summary statements of the text over the strain panel; type: cell-based; settings: peptide at ¼ ×MIC combined with vancomycin, all strains studied
Experimental: The synergistic effects of peptides in combination with vancomycin were investigated by checkerboard assay with slight modification. The peptides were fixed concentration at ¼ × MIC, then in combination with antibiotics at various concentrations in each well of 96-well plate. Then the peptide/antibiotic were mixed with inoculum (5 × 10^5 CFU/mL) and incubated at 37 °C for 16 h. The fractional inhibitory concentration (FIC) index was calculated as follows: FIC index = (MIC of drug A in combination/MIC of drug A alone) + (MIC of drug B in combination/MIC of drug B alone). An FIC index of ≤ 0.5 was defined as synergy, indifference was defined as an FIC index of 0.5 < FICI ≤ 4, antagonism was defined as an FIC index of > 4. The experiments were performed in triplicate.

[4] = system: Vancomycin-intermediate S. aureus 02 (VISA02); assay: microbe, parasite or virus in culture; type: cell-based, Staphylococcus aureus
Experimental: as §1

[5] = system: Vancomycin-intermediate S. aureus 01 (VISA01); assay: microbe, parasite or virus in culture; type: cell-based, Staphylococcus aureus
Experimental: as §1

[6] = system: Vancomycin-intermediate S. aureus 03 (VISA03); assay: microbe, parasite or virus in culture; type: cell-based, Staphylococcus aureus
Experimental: as §1

[7] = POPC:POPG (3:1, mol/mol) and POPC:LPS (4:1, mol/mol) LUVs; cited from earlier work
Text: Dathe and coauthors used POPC:LPS as model prokaryotic membranes to study peptide activity against E. coli and the role of LPS [20]. Previously, we have evaluated the membrane-permeability of P-113 and its derivatives by measuring the release of calcein from various phospholipid vesicles such as POPC:POPG (3:1, mol/mol) LUVs (mimic the anionic bacterial membrane) and POPC:LPS (4:1, mol/mol) LUVs (served as surrogates of Gram-negative bacterial membranes that contain LPS). […] Nal- ...

[8] = system: Vancomycin-resistant S. aureus 03 (VRSA03); assay: microbe, parasite or virus in culture; type: cell-based, Staphylococcus aureus; settings: 16 h
Experimental: (§3) For the purpose of inducing vancomycin-resistant Staphylococcus aureus (VRSA), the VISA01, VISA02, and VISA03 bacteria were incubated overnight in culture medium, and transferring 50 µL of bacteria to 5 mL of fresh medium containing 2 μg/mL of vancomycin then incubated overnight. The bacteria were transferred to new tube with doubling vancomycin concentration and then incubated overnight again. The concentration of vancomycin during serial passage was 2, 4, 8, 16, and 32 µg/mL. The procedure was repeated until meeting the final concentration of 32 µg/mL. After serial passage, the cell resistance was confirmed by using an MIC assay.
as §1

[9] = system: Vancomycin-resistant S. aureus 02 (VRSA02); assay: microbe, parasite or virus in culture; type: cell-based, Staphylococcus aureus; settings: 16 h
Experimental: as §3, §1

[10] = system: Vancomycin-resistant S. aureus 01 (VRSA01); assay: microbe, parasite or virus in culture; type: cell-based, Staphylococcus aureus; settings: 16 h
Experimental: as §3, §1

E. coli ATCC 25922 [11] = assay: Time killing assay; type: cell-based, Escherichia coli; settings: E. coli ATCC 25922, 5 × 10^5 CFU/mL, 1 × MIC, 0.5-24 h, 37 °C; triplicate
Experimental: (§4) The bactericidal activities of vancomycin, P-113, Phe-P-113, Bip-P-113, Dip-P-113, and Nal-P-113 against E. faecium BCRC 15B0132 (VRE) and E. coli ATCC 25922 were assessed by the time-kill analysis. The cells were grown overnight in TSB or MHB at 37 °C with shaking, and then fresh TSB or MHB was inoculated for growth to mid-logarithmic phase. Bacteria (5 × 10^5 CFU/mL) were treated with 1 × MIC vancomycin, P-113, Phe-P-113, Bip-P-113, Dip-P-113, and Nal-P-113 for 0.5, 1, 2, 4, 6, 10, and 24 h at 37 °C. Bacteria without peptides and vancomycin served as a control. Aliquots were removed at each time points, and 10-fold serial dilutions of the aliquot were plated onto the Müller-Hinton agar. The numbers of CFU were counted after 24 h of incubation at 37 °C. The detection limit for the colony counts was 2log10 CFU/mL.

[12] = system: E. faecium BCRC 15B0132 (VRE); assay: Time killing assay; type: cell-based, Enterococcus faecium; settings: 5 × 10^5 CFU/mL, 1 × MIC, 0.5-24 h, 37 °C, triplicate
Experimental: as §4

[13] = system: E. faecium BCRC 15B0132 (VRE); assay: microbe, parasite or virus in culture; type: cell-based, Enterococcus faecium
Experimental: as §1

E. coli ATCC 25922 [14] = assay: Uptake of BODIPY-labeled vancomycin, confocal laser scanning microscopy; type: cell-based, Escherichia coli; settings: E. coli 10^7 CFU/mL, 0.5 ×MIC peptide 30 min at 37 °C, then BODIPY-labeled vancomycin (2 μg/mL) 30 min; mean fluorescence intensity
Experimental: as §2

[15] = Vancomycin-intermediate 02 (VISA02, 16 h)
[16] = Vancomycin-intermediate 01 (VISA01, 16 h)
[17] = Vancomycin-intermediate 03 (VISA03, 16 h)
[18] = VRSA03 (induced from VISA03 by serial passage), CLSI broth microdilution, TSB, 5 × 10^5 CFU/mL, 37 °C, triplicate
[19] = VRSA02 (induced from VISA02 by serial passage), CLSI broth microdilution, TSB, 5 × 10^5 CFU/mL, 37 °C, triplicate
[20] = VRSA01 (induced from VISA01 by serial passage), CLSI broth microdilution, TSB, 5 × 10^5 CFU/mL, 37 °C, triplicate

Row | SMILES | MICs against these bacterial strains [1] | entry of BODIPY-labeled vancomycin into the bacteria (rank order) (E. faecium BCRC 15B0132) | MIC (E. coli ATCC 25922 [2]; ATCC 25922, 16 h) | synergy with vancomycin (interpretation of FICI) [3] | MIC [4, 15] | MIC [5, 16] | MIC [6, 17] | calcein leakage from LUVs [7] | MIC [8, 18] | MIC [9, 19] | MIC [10, 20] | killing kinetics (E. coli ATCC 25922 [11]) | killing kinetics [12] | MIC ([13]; BCRC 15, 16 h) | entry of BODIPY-labeled vancomycin into the bacteria (rank order) (E. coli ATCC 25922 [14]) | further results
1 | CC(=O)N[C@@H](C)C(=O)N[C@@H](CCCCN)C(=O)N[C@@H](CCCNC(=N)N)C(=O)N[C@@H](Cc1ccccc1)C(=O)N[C@@H](Cc1ccccc1)C(=O)NCC(=O)N[C@@H](Cc1ccc(O)cc1)C(=O)N[C@@H](CCCCN)C(=O)N[C@@H](CCCNC(=N)N)C(=O)N[C@@H](CCCCN)C(=O)N[C@@H](Cc1ccccc1)C(=O)N[C@@H](Cc1ccccc1)C(N)=O [Phe-P-113] (Ac-AKRFFGYKRKFF-NH2) | > 64 µg/mL | Bip-P-113 = Nal-P-113 > Dip-P-113 > Phe-P-113 = P-113 | >64 mg/L | no synergy | >64 mg/L | >64 mg/L | >64 mg/L | only weak abilities in causing calcein leakage | >64 mg/L | >64 mg/L | >64 mg/L | limited bactericidal activity | slower or limited killing kinetics | >64 mg/L | Bip-P-113 > Nal-P-113 > Dip-P-113 > Phe-P-113 = P-113 | 
2 | CN[C@H](CC(C)C)C(=O)N[C@H]1C(=O)N[C@@H](CC(N)=O)C(=O)N[C@H]2C(=O)N[C@H]3C(=O)N[C@H](C(=O)N[C@H](C(=O)O)c4cc(O)cc(O)c4-c4cc3ccc4O)[C@H](O)c3ccc(c(Cl)c3)Oc3cc2cc(c3O[C@@H]2O[C@H](CO)[C@@H](O)[C@H](O)[C@H]2O[C@H]2C[C@](C)(N)[C@H](O)[C@H](C)O2)Oc2ccc(cc2Cl)[C@H]1O [Vancomycin] |  |  |  |  |  |  |  |  |  |  |  | limited bactericidal activity | slower or limited killing kinetics |  |  | MIC ([1]; read-out: MIC against VISA strains): 4 mg/L (≈ 2.76 µM); MIC ([1]; read-out: MIC against VRSA strains): 32 mg/L (≈ 22.1 µM); MIC (E. coli ATCC 25922 [2]; E. coli ATCC 25922, CLSI broth microdilution, MHB, 5 × 10^5 CFU/mL, 16 h, 37 °C, OD600, 90% growth inhibition, triplicate): > 64 mg/L; MIC (E. coli ATCC 25922 [2]; Escherichia coli, ATCC25922, 16 h): > 64 mg/L; MIC ([4]; Staphylococcus aureus, 16 h): 4 mg/L (≈ 2.76 µM); MIC ([5]; Staphylococcus aureus, 16 h): 4 mg/L (≈ 2.76 µM); MIC ([6]; Staphylococcus aureus, 16 h): 4 mg/L (≈ 2.76 µM); MIC ([8]; Staphylococcus aureus): 32 mg/L (≈ 22.1 µM); MIC ([9]; Staphylococcus aureus): 32 mg/L (≈ 22.1 µM); MIC ([10]; Staphylococcus aureus): 32 mg/L (≈ 22.1 µM); MIC ([13]; E. faecium BCRC 15B0132 (VRE), CLSI broth microdilution, TSB, 5 × 10^5 CFU/mL, 16 h, 37 °C, OD600, 90% growth inhibition, triplicate): 64 mg/L (≈ 44.2 µM); MIC ([13]; Enterococcus faecium, VRE, 16 h): 64 mg/L (≈ 44.2 µM)
3 | CC(=O)N[C@@H](C)C(=O)N[C@@H](CCCCN)C(=O)N[C@@H](CCCNC(=N)N)C(=O)N[C@@H](Cc1c[nH]cn1)C(=O)N[C@@H](Cc1c[nH]cn1)C(=O)NCC(=O)N[C@@H](Cc1ccc(O)cc1)C(=O)N[C@@H](CCCCN)C(=O)N[C@@H](CCCNC(=N)N)C(=O)N[C@@H](CCCCN)C(=O)N[C@@H](Cc1ccccc1)C(=O)N[C@@H](Cc1c[nH]cn1)C(N)=O [P-113] (Ac-AKRHHGYKRKFH-NH2) | > 64 µg/mL | Bip-P-113 = Nal-P-113 > Dip-P-113 > Phe-P-113 = P-113 | >64 mg/L | no synergy | >64 mg/L | >64 mg/L | >64 mg/L | only weak abilities in causing calcein leakage | >64 mg/L | >64 mg/L | >64 mg/L | limited bactericidal activity | slower or limited killing kinetics | >64 mg/L | Bip-P-113 > Nal-P-113 > Dip-P-113 > Phe-P-113 = P-113 | 

Reference: PMC7369893, “Antimicrobial Peptides Display Strong Synergy with Vancomycin Against Vancomycin-Resistant E. faecium, S. aureus, and Wild-Type E. coli” (International Journal of Molecular Sciences, 2020)
